# Test results reported in patent US20260355182A1, “ISOQUINOLINE DERIVATIVE, SYNTHESIS METHOD THEREFOR, AND USE THEREOF” (Harbin Gloria Pharmaceuticals Co., Ltd., priority 2023, published 2026).
# Like-named read-outs stand apart in the source and are kept apart here.
# How the values were obtained:
# db/db mice [1] = experiment: Hypoglycemic effect in diabetic model db/db mice, intraperitoneal; format: in vivo; settings: 4 hours
# Procedure: Gene knockout db/db mice are a classic model of hyperglycemia and obesity. Under normal feeding conditions, mice aged 3 months or older developed hyperglycemia and obesity. After the mice were provided with only drinking water (fasted) for 6 hours, blood was collected from the tail of the mice to measure blood glucose values. Subsequently, different drugs, including saline (control), liraglutide at 0.6 mg/Kg, low-concentration T6 (T6 low, 0.1 mg/Kg), and high-concentration T6 (T6 high, 0.5 mg/Kg), were injected intraperitoneally. 4 hours later, blood was collected from the tail of the mice to measure the blood glucose levels. Each group consisted of 6 mice. Blood glucose levels before administration (Vbefore) and after administration (Vafter) were obtained for each mouse. The effect of the drug on blood glucose (%) was calculated as follows:
# (Vbefore−Vafter)×100/Vbefore.
# db/db mice [2] = experiment: Long-term hypoglycemic and weight-loss effects in db/db mice, drinking water; format: in vivo; settings: drinking water 7 days
# Procedure: The hypoglycemic effect of the novel isoquinoline derivatives via intraperitoneal injection lasted no more than 6 hours. To determine the long-term hypoglycemic effect of T6, T6 was added to drinking water and administered to mice continuously for one week.
# After 7 days of treatment, changes in glycated hemoglobin (HbA1c) level, insulin level in mouse blood, and body weight, were measured.
# Pgk1 [3] = target: T1, Pgk1 (Homo sapiens, UniProt P00558); experiment: T6 binding affinity with Pgk1 by SPR; settings: steady-state affinity model
# T1 sequence (P00558 1-417): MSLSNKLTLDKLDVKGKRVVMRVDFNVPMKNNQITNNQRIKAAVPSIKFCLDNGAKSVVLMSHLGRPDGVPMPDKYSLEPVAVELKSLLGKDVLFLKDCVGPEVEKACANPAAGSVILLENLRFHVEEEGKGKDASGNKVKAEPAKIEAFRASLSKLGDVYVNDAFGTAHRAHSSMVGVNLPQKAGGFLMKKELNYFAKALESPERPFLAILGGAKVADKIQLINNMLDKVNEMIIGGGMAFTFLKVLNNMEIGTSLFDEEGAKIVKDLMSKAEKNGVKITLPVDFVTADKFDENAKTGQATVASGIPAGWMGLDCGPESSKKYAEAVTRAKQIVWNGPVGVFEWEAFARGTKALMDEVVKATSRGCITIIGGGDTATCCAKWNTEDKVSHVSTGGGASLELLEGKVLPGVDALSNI
# Description: Surface plasmon resonance (SPR) was used to measure the interaction between the small molecule T6 and Pgk1. Equilibrium binding responses at increasing T6 concentrations were fitted using a steady-state affinity model. In FIG. 9, diamonds represent the measured response units (RU), and the black curve indicates the fitted binding isotherm. […] The vertical line marks the calculated KD value.
# [4] = tested on: MPTP-induced Parkinsonian mouse model; experiment: MPTP-induced Parkinsonian mouse model, rotarod and TH Western blot (T6); format: in vivo; settings: T6 0.15, 0.3 and 1.5 mg/kg
# Procedure: Mice were administered MPTP at 20 mg/kg to induce Parkinsonian motor impairment and dopaminergic neuronal injury. […] In FIG. 13, A) motor coordination and endurance were assessed using the rotarod test and are expressed as the time remaining on the rotating rod. […] Actin was used as a loading control. […] Data are presented as mean±error bars, with individual points representing biological replicates. Significance of one-way ANOVA analysis is indicated as P<0.05 (*), P<0.01 (**), and P<0.001 (***).
# Pgk1 [5] = target: T1, Pgk1; experiment: In vitro biochemical Pgk1 enzymatic activity assay (NADH production); set-up: GAPDH-coupled NADH assay; settings: role: activator, 1.6 mM GAP, 1 mM β-NAD, 1 mM ADP
# Procedure: Human Pgk1 cDNA was cloned into the pEASYTM-E2 vector (TransGen Biotech) containing a His tag. Protein expression was induced in BL21(DE3) chemocompetent cells (TransGen Biotech) with 0.5 mM IPTG. After lysing cells in extraction buffer (20 mM sodium phosphate, 500 mM NaCl, 5 mM imidazole, 5% glycerol, protease inhibitor cocktail, pH 7.9), the supernatant was purified with nickel beads (AdarBiotech). The His-tagged Pgk1 was eluted with the elution buffer (20 mM sodium phosphate, 500 mM NaCl, 80 mM imidazole, protease inhibitor cocktail, pH 7.9). The activity of Pgk1 can be measured by monitoring the rate of NADH production, as NADH accumulated as the reaction proceeded. Purified Pgk1-His protein ([…]) was added to the reaction buffer (20 mM Tris, 100 mM NaCl, 2 mM DTT, 0.1 mM MgSO4, 10 mM NaHPO4, pH 8.6), and the substrates (1.6 mM GAP, 1 mM β-NAD, 1 mM ADP, 20 ng/μL GAPDH) was added. […] After reaction for 10 minutes at room temperature, the absorbance wavelength at 339 nm was measured using a microplate reader (Molecular Devices, SpectraMax i3x), and this wavelength corresponds to NADH levels.
structure (smiles),measurement,setting,value
Nc1nc(N2CCN(C(=O)[C@H]3CCCO3)CC2)cc2cc3c(cc12)OCC3 [Compound T6],Hypoglycemic effect (low concentration),db/db mice [1]; 0.1 mg/kg i.p.,significant hypoglycemic effects
same,Hypoglycemic effect (high concentration),db/db mice [1]; 0.5 mg/kg i.p.,significant hypoglycemic effects
same,Glycated hemoglobin (HbA1c) level,"db/db mice [2]; metformin 350 mg/kg, terazosin 0.3 mg/kg, T6 1.5 mg/kg",decrease in glycated hemoglobin (HbA1c) level
same,Long-term hypoglycemic effect versus terazosin and metformin,db/db mice [2]; long-term oral administration,better hypoglycemic effect than that of terazosin and metformin
same,Estimated Rmax,Pgk1 [3],7.799 RU
same,Kd,Pgk1 [3]; read-out: KD (approximately),~22.4 µM
same,Kd,Pgk1 [3]; read-out: KD (fitted dissociation constant),22.4 µM
same,Rotarod performance,[4]; MPTP 20 mg/kg,"improved rotarod performance in MPTP-treated mice, with significant protective effects"
same,TH protein abundance,"[4]; normalized to actin, vs MPTP alone",significantly increased relative TH abundance
same,Concentration for best activation of Pgk1,"Pgk1 [5]; 20 ng/μL GAPDH, pH 8.6, 10 minutes",0.1 µM
same,Inhibition of Pgk1 at the tested concentrations,Pgk1 [5]; all tested concentrations,none of the concentrations can inhibit Pgk1
